Reference: BindingDB's records for doi:10.1111/cbdd.12575 (Universidade De Lisboa, 2015)

Biological target: T1, Nitric oxide synthase, inducible (Mus musculus, UniProt P29477)
T1 sequence (P29477 whole entry): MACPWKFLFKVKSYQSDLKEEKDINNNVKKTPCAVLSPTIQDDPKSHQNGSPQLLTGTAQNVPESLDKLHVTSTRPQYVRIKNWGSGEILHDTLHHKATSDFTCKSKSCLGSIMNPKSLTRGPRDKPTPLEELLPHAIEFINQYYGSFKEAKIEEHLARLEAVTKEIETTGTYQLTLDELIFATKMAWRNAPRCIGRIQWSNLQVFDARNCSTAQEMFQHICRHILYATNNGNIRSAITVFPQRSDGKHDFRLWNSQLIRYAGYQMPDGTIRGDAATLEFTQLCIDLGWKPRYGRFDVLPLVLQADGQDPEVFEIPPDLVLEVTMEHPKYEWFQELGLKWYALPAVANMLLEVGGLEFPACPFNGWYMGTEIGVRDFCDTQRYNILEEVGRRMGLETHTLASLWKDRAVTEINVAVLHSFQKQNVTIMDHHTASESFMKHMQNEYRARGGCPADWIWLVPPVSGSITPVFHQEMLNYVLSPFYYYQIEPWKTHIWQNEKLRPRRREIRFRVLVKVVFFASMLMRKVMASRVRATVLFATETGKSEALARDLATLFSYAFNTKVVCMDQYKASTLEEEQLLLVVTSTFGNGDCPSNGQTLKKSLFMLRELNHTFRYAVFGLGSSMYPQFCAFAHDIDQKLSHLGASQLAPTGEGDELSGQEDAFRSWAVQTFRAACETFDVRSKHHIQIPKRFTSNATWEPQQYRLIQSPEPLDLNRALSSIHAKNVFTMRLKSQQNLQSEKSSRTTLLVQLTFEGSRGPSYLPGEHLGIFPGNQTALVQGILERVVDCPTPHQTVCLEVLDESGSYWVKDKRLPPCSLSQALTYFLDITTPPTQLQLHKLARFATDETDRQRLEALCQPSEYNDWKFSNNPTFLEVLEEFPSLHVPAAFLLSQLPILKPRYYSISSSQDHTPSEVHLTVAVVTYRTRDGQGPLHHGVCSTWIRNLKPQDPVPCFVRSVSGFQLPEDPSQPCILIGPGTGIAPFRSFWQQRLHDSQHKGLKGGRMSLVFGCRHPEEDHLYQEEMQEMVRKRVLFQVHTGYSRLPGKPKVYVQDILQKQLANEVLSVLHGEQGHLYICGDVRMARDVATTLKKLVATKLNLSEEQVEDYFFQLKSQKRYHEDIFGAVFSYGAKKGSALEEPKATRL
Assay: iNOS Activity Assay
Experimental: The iNOS activity assay was based on the method of hemoglobin assay previously described with slight modifications. The activity of the enzyme was determined spectrophotometrically by monitoring the NO-mediated conversion of oxyhemoglobin to methemoglobin at 401 and 421 nm.

**Q.** How did the Ki turn out when `NCC(N)(CCCCCCC(=O)NC(CCCNC(N)=N[N+](=O)[O-])C(=O)O)C(=O)O` (stereo not given) [2-Amino-2-(aminomethyl)-9-(1-carboxy-4-(2-nitroguanidino)butylamino)-9-oxononanoic acid (L6)] was run?
**A.** 760 µM

**Q.** `N=C(NCCCC(NC(=O)CCCC12C[NH][Re]([CH]=O)([CH]=O)([CH]=O)([NH]1)[O]C2=O)C(=O)O)N[N+](=O)[O-]` (stereo not given) [4-{3-[(1-carboxylato-4-{[iminiumyl(nitroamino)methyl]amino}butyl)carbamoyl]propyl}-1,1,1-triformyl-3-oxo-2-oxa-6,7-diaza-1-rhenabicyclo[2.2.1]heptane-6,7-diium (Re5)] was tested. Which Ki did it give?
**A.** 57.2 µM

**Q.** For `N=C(NCCCC(N)(CN)C(=O)O)N[N+](=O)[O-]` (stereo not given) [2-Amino-2-(aminomethyl)-5-(3-nitroguanidino)pentanoic acid (L4)], which Ki is on record?
**A.** 29.4 µM

**Q.** `N=C(NCCCC12C[NH][Re]([CH]=O)([CH]=O)([CH]=O)([NH]1)[O]C2=O)N[N+](=O)[O-]` (stereo not given) [1,1,1-triformyl-4-(3-{[iminiumyl(nitroamino)methyl]amino}propyl)-3-oxo-2-oxa-6,7-diaza-1-rhenabicyclo[2.2.1]heptane-6,7-diium (Re4)] was tested. Which Ki did it give?
**A.** 241 µM

**Q.** How did the Ki turn out when `NCC(N)(CCCC(=O)NC(CCCNC(N)=N[N+](=O)[O-])C(=O)O)C(=O)O` (stereo not given) [2-Amino-2-(aminomethyl)-6-(1-carboxy-4-(2-nitroguanidino)butylamino)-6-oxohexanoic acid (L5)] was run?
**A.** 6.2 µM
